T1: MtbCBS (Mycobacterium tuberculosis cystathionine β-synthase) (Mycobacterium tuberculosis, UniProt P9WP51)
T1 sequence (P9WP51 1-464): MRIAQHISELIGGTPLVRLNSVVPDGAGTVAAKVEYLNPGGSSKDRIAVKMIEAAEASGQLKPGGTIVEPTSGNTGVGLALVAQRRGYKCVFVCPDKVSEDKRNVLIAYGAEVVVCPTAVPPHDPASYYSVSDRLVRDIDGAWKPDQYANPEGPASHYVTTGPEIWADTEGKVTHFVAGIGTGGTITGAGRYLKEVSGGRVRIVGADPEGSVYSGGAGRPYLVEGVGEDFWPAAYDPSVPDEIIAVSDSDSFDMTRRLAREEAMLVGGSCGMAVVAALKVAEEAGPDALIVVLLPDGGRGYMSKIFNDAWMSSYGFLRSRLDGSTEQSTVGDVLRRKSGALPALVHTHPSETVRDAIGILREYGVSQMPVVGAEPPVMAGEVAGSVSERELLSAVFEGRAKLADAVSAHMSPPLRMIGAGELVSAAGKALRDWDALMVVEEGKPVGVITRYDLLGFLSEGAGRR

B1: MtbCBS (Mycobacterium tuberculosis cystathionine β-synthase) (Mycobacterium tuberculosis H37Rv) (protein)
chain: T1 sequence (P9WP51 1-464)

Legend:
[1] = molecular target: T1, MtbCBS (Mycobacterium tuberculosis cystathionine β-synthase); test: fluorescence of PLP aldimine; format: biochemical
[2] = substrate: N[C@@H](CS)C(=O)O; test: purified protein; settings: pH 7.5; 25.0 °C

| Molecule | IC50 [1] [µM] | Km [2] [mM] |
| --- | --- | --- |
| NOCC(=O)O [AOAA] | ~100 | – |
| B1 | – | 15.47 |

Source: publication doi:10.1101/2025.07.03.662948v1 (biorxiv, 2025)
